For orientation: TGI means the concentration giving total growth inhibition.

Data on seven compounds can be found in PubChem BioAssay (NCI).

Some test systems named below: OVCAR-3 ovarian; NCI-H522 lung; UACC-257 melanoma; MDA-MB-231 breast; HCT-15 colon; A549 NSCLC; SN12C renal; OVCAR-4 ovarian; NCI-H23 lung; SR leukemia; IGROV1 ovarian; SW-620 colon; 786-0 renal; NCI/ADR-RES ovarian; MALME-3M melanoma; K-562 leukemia; TK-10 renal; MDA-MB-435.
Holding throughout (experiment): DTP human tumour cell line panel, 48 h

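How tested: cells in 96-well plates exposed to compound for 48 hours at five concentrations. TGI: concentration producing complete growth inhibition.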

As to `CC1=NN(C(=O)c2ccccc2O)C(=O)/C1=C/c1ccco1`, the total growth inhibition concentration (TGI) was 6.11 µM with OVCAR-3 ovarian; 37.7 µM in the test with NCI-H522 lung; over 83.1 µM with UACC-257 melanoma; over 100 µM in the test with MDA-MB-231 breast; over 100 µM with HCT-15 colon; over 100 µM in the test with A549 NSCLC. The TGI in the test with SN12C renal is over 39.3 µM; with OVCAR-4 ovarian it was over 84.8 µM; with NCI-H23 lung, over 26.9 µM; in the test with SR leukemia, over 100 µM; in the test with IGROV1 ovarian, over 35.4 µM; in the test on SW-620 colon, over 100 µM. Also, the TGI in the test on 786-0 renal is over 100 µM; with NCI/ADR-RES ovarian it was 85.3 µM; with MALME-3M melanoma it was 73.1 µM; in the test on K-562 leukemia it was over 100 µM; in the test with TK-10 renal, over 100 µM; with MDA-MB-435, over 100 µM.
Regarding `COC(=O)C1(CCC(C)=O)CCCCCC1=O` (stereo not given), the TGI in the test on OVCAR-3 ovarian, in the test with NCI-H522 lung, in the test with UACC-257 melanoma, with MDA-MB-231 breast, in the test with HCT-15 colon and with A549 NSCLC was over 100 µM each time. Moreover, the TGI in the test on SN12C renal, in the test on OVCAR-4 ovarian, in the test with NCI-H23 lung, in the test with SR leukemia, in the test on IGROV1 ovarian and in the test on SW-620 colon was over 100 µM throughout. Further, the TGI with 786-0 renal, in the test on NCI/ADR-RES ovarian, in the test with MALME-3M melanoma, in the test with K-562 leukemia, in the test with TK-10 renal and in the test on MDA-MB-435 was over 100 µM throughout.
For `O=[N+]([O-])/C(C(Cl)=C(Cl)Cl)=C(\N1CCOCC1)n1nnc2ccccc21`, the TGI with OVCAR-3 ovarian was 42.2 µM; with NCI-H522 lung it was 34.1 µM; with UACC-257 melanoma it was 50.7 µM; in the test on MDA-MB-231 breast it was 35.1 µM; with HCT-15 colon it was 29.6 µM; in the test on A549 NSCLC, 42.7 µM. For the same compound, the total growth inhibition concentration (TGI) was determined as 42.9 µM with SN12C renal; 76.1 µM with OVCAR-4 ovarian; 32.7 µM with NCI-H23 lung; 44.8 µM in the test on 786-0 renal; 65.1 µM in the test with NCI/ADR-RES ovarian; 35.1 µM in the test with MALME-3M melanoma. Further, the results for the concentration for total growth inhibition (TGI) with TK-10 renal and in the test on MDA-MB-435 were 63.8 µM and 41 µM, respectively.
With `CCc1n[nH]c(=O)n1/N=C/c1c(O)ccc2ccccc12`, the TGI in the test on OVCAR-3 ovarian, in the test on NCI-H522 lung, with UACC-257 melanoma, in the test with MDA-MB-231 breast, with HCT-15 colon and in the test with A549 NSCLC was over 100 µM each time. For the same compound, the TGI with SN12C renal, in the test with OVCAR-4 ovarian, with NCI-H23 lung, in the test on SR leukemia, in the test on IGROV1 ovarian and in the test with SW-620 colon was over 100 µM throughout. For the same compound, the concentration for total growth inhibition (TGI) in the test with 786-0 renal, with NCI/ADR-RES ovarian, with K-562 leukemia, in the test on TK-10 renal and with MDA-MB-435 was over 100 µM each time.
`O=c1c2c(oc3ccccc13)-c1ccccc1OC2`: the TGI with OVCAR-3 ovarian is over 100 µM; with NCI-H522 lung, over 100 µM; with UACC-257 melanoma, over 100 µM; with MDA-MB-231 breast, 47.4 µM; with HCT-15 colon it was over 100 µM; in the test with A549 NSCLC, over 100 µM. The TGI was over 100 µM in the test with SN12C renal; over 100 µM with NCI-H23 lung; over 100 µM in the test with IGROV1 ovarian; over 100 µM in the test with SW-620 colon; 64.2 µM in the test on 786-0 renal; over 100 µM in the test on NCI/ADR-RES ovarian. The TGI with MALME-3M melanoma, with K-562 leukemia, in the test on TK-10 renal and with MDA-MB-435 was over 100 µM each time.
`C(=C\c1cccs1)/c1cccc(/C=C/c2cccs2)n1`: the TGI in the test with OVCAR-3 ovarian, in the test with UACC-257 melanoma, in the test with MDA-MB-231 breast, in the test with HCT-15 colon, in the test with A549 NSCLC and in the test on SN12C renal was over 100 µM in each case. Moreover, the TGI in the test with OVCAR-4 ovarian is 66.6 µM; in the test with NCI-H23 lung it was over 100 µM; with SR leukemia, over 100 µM; in the test with IGROV1 ovarian, over 100 µM; with SW-620 colon, over 100 µM; with 786-0 renal, over 100 µM. In addition, the TGI in the test with NCI/ADR-RES ovarian was over 100 µM; with MALME-3M melanoma, 3.21 µM; in the test with K-562 leukemia, over 100 µM; with TK-10 renal, over 100 µM; in the test with MDA-MB-435, over 100 µM.
Take `CCSc1[nH]c(NC(=S)NC(=O)c2ccccc2Cl)c(C(N)=O)c1C(N)=O`: the TGI in the test with UACC-257 melanoma, in the test on MDA-MB-231 breast, in the test with HCT-15 colon, in the test with A549 NSCLC, in the test on SN12C renal and in the test with OVCAR-4 ovarian was over 10 µM in each case. Besides, the TGI in the test with NCI-H23 lung, in the test on SR leukemia, with IGROV1 ovarian, in the test on SW-620 colon, in the test with 786-0 renal and in the test on MALME-3M melanoma was over 10 µM in each case. Besides, the TGI in the test on K-562 leukemia, in the test on TK-10 renal and with MDA-MB-435 was over 10 µM each time.
